Data taken from PubChem BioAssay (NCI).
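Protocol summary: plate cells (96-well), add compound at 5 concentrations, incubate 48 h, interpolate endpoints linearly. At the TGI there is no net growth.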

What was measured:
Assay in all cases: NCI anticancer screen, dose series, 48 h
KM12 colon = tested on: KM12 colon
NCI-H522 lung = tested on: NCI-H522 lung
NCI-H460 lung = tested on: NCI-H460 lung
LOX IMVI melanoma = tested on: LOX IMVI melanoma
SF-295 CNS = tested on: SF-295 CNS
PC-3 prostate = tested on: PC-3 prostate
OVCAR-8 ovarian = tested on: OVCAR-8 ovarian
SR leukemia = tested on: SR leukemia
SF-268 CNS = tested on: SF-268 CNS
M14 melanoma = tested on: M14 melanoma
SK-MEL-5 melanoma = tested on: SK-MEL-5 melanoma
IGROV1 ovarian = tested on: IGROV1 ovarian
MDA-N = tested on: MDA-N
HOP-62 NSCLC = tested on: HOP-62 NSCLC
SW-620 colon = tested on: SW-620 colon
OVCAR-4 ovarian = tested on: OVCAR-4 ovarian
MALME-3M melanoma = tested on: MALME-3M melanoma
HCC-2998 colon = tested on: HCC-2998 colon
HL-60(TB) leukemia = tested on: HL-60(TB) leukemia
NCI/ADR-RES ovarian = tested on: NCI/ADR-RES ovarian
UACC-257 melanoma = tested on: UACC-257 melanoma
TK-10 renal = tested on: TK-10 renal
A498 renal = tested on: A498 renal
MDA-MB-435 = tested on: MDA-MB-435
T-47D breast = tested on: T-47D breast
SK-OV-3 ovarian = tested on: SK-OV-3 ovarian
CCRF-CEM leukemia = tested on: CCRF-CEM leukemia
SN12C renal = tested on: SN12C renal
MCF7 breast = tested on: MCF7 breast
SNB-19 CNS = tested on: SNB-19 CNS
MOLT-4 leukemia = tested on: MOLT-4 leukemia
DU-145 prostate = tested on: DU-145 prostate
MDA-MB-231 breast = tested on: MDA-MB-231 breast
EKVX NSCLC = tested on: EKVX NSCLC
OVCAR-5 ovarian = tested on: OVCAR-5 ovarian
SK-MEL-28 melanoma = tested on: SK-MEL-28 melanoma
HOP-92 NSCLC = tested on: HOP-92 NSCLC
NCI-H23 lung = tested on: NCI-H23 lung
K-562 leukemia = tested on: K-562 leukemia
CAKI-1 renal = tested on: CAKI-1 renal
786-0 renal = tested on: 786-0 renal
HT29 colon = tested on: HT29 colon
OVCAR-3 ovarian = tested on: OVCAR-3 ovarian
SNB-75 CNS = tested on: SNB-75 CNS
UO-31 renal = tested on: UO-31 renal
COLO 205 colon = tested on: COLO 205 colon
RXF 393 renal = tested on: RXF 393 renal
HCT-116 colon = tested on: HCT-116 colon
NCI-H226 lung = tested on: NCI-H226 lung
RPMI-8226 leukemia = tested on: RPMI-8226 leukemia
SF-539 CNS = tested on: SF-539 CNS
A549 NSCLC = tested on: A549 NSCLC
ACHN renal = tested on: ACHN renal
SK-MEL-2 melanoma = tested on: SK-MEL-2 melanoma
U251 CNS = tested on: U251 CNS
HS 578T breast = tested on: HS 578T breast
UACC-62 melanoma = tested on: UACC-62 melanoma
HCT-15 colon = tested on: HCT-15 colon

Question: For `CSc1ncnc2c1ncn2CCC(=O)OC(C)(C)C`, which TGI (KM12 colon) is on record?
Answer: > 100 µM

Question: What about the TGI (NCI-H522 lung) of the same molecule?
Answer: > 100 µM

Question: And the TGI (NCI-H460 lung)?
Answer: > 100 µM

Question: And the TGI (LOX IMVI melanoma)?
Answer: > 100 µM

Question: What about the TGI (SF-295 CNS) of the same molecule?
Answer: > 100 µM

Question: And the TGI (PC-3 prostate)?
Answer: > 100 µM

Question: What about the TGI (OVCAR-8 ovarian) of the same molecule?
Answer: > 100 µM

Question: What about the TGI (SR leukemia) of the same molecule?
Answer: > 100 µM

Question: What about the TGI (SF-268 CNS) of the same molecule?
Answer: > 100 µM

Question: And the TGI (M14 melanoma)?
Answer: > 100 µM

Question: What about the TGI (SK-MEL-5 melanoma) of the same molecule?
Answer: > 100 µM

Question: And the TGI (IGROV1 ovarian)?
Answer: > 100 µM

Question: What about the TGI (MDA-N) of the same molecule?
Answer: > 100 µM

Question: And the TGI (HOP-62 NSCLC)?
Answer: > 100 µM

Question: And the TGI (SW-620 colon)?
Answer: > 100 µM

Question: And the TGI (OVCAR-4 ovarian)?
Answer: > 100 µM

Question: And the TGI (MALME-3M melanoma)?
Answer: > 100 µM

Question: What about the TGI (HCC-2998 colon) of the same molecule?
Answer: > 100 µM

Question: And the TGI (HL-60(TB) leukemia)?
Answer: > 100 µM

Question: What about the TGI (NCI/ADR-RES ovarian) of the same molecule?
Answer: > 100 µM

Question: What about the TGI (UACC-257 melanoma) of the same molecule?
Answer: > 100 µM

Question: And the TGI (TK-10 renal)?
Answer: > 100 µM

Question: And the TGI (A498 renal)?
Answer: > 100 µM

Question: And the TGI (MDA-MB-435)?
Answer: > 100 µM

Question: And the TGI (T-47D breast)?
Answer: > 100 µM

Question: What about the TGI (SK-OV-3 ovarian) of the same molecule?
Answer: > 100 µM

Question: What about the TGI (CCRF-CEM leukemia) of the same molecule?
Answer: > 100 µM

Question: And the TGI (SN12C renal)?
Answer: > 100 µM

Question: What about the TGI (MCF7 breast) of the same molecule?
Answer: > 100 µM

Question: And the TGI (SNB-19 CNS)?
Answer: > 100 µM

Question: And the TGI (MOLT-4 leukemia)?
Answer: > 100 µM

Question: What about the TGI (DU-145 prostate) of the same molecule?
Answer: > 100 µM

Question: And the TGI (MDA-MB-231 breast)?
Answer: > 100 µM

Question: And the TGI (EKVX NSCLC)?
Answer: > 100 µM

Question: And the TGI (OVCAR-5 ovarian)?
Answer: > 100 µM

Question: And the TGI (SK-MEL-28 melanoma)?
Answer: > 100 µM

Question: And the TGI (HOP-92 NSCLC)?
Answer: > 100 µM

Question: What about the TGI (NCI-H23 lung) of the same molecule?
Answer: > 100 µM

Question: And the TGI (K-562 leukemia)?
Answer: > 100 µM

Question: What about the TGI (CAKI-1 renal) of the same molecule?
Answer: > 100 µM

Question: And the TGI (786-0 renal)?
Answer: > 100 µM

Question: And the TGI (HT29 colon)?
Answer: > 100 µM

Question: What about the TGI (OVCAR-3 ovarian) of the same molecule?
Answer: > 100 µM

Question: And the TGI (SNB-75 CNS)?
Answer: > 100 µM

Question: And the TGI (UO-31 renal)?
Answer: > 100 µM

Question: What about the TGI (COLO 205 colon) of the same molecule?
Answer: > 100 µM

Question: What about the TGI (RXF 393 renal) of the same molecule?
Answer: > 100 µM

Question: And the TGI (HCT-116 colon)?
Answer: > 100 µM

Question: And the TGI (NCI-H226 lung)?
Answer: > 100 µM

Question: And the TGI (RPMI-8226 leukemia)?
Answer: > 100 µM

Question: What about the TGI (SF-539 CNS) of the same molecule?
Answer: > 100 µM

Question: What about the TGI (A549 NSCLC) of the same molecule?
Answer: > 100 µM

Question: What about the TGI (ACHN renal) of the same molecule?
Answer: > 100 µM

Question: Which TGI (KM12 colon) does the source give for `CC(=O)Oc1ccc2c(C)cc(=O)oc2c1OC(C)=O` here?
Answer: > 100 µM

Question: And the TGI (LOX IMVI melanoma)?
Answer: > 100 µM

Question: And the TGI (SF-295 CNS)?
Answer: > 100 µM

Question: And the TGI (SK-MEL-2 melanoma)?
Answer: > 100 µM

Question: And the TGI (PC-3 prostate)?
Answer: > 100 µM

Question: And the TGI (OVCAR-8 ovarian)?
Answer: > 100 µM

Question: And the TGI (SR leukemia)?
Answer: > 100 µM

Question: And the TGI (SF-268 CNS)?
Answer: > 100 µM

Question: What about the TGI (M14 melanoma) of the same molecule?
Answer: > 100 µM

Question: What about the TGI (SK-MEL-5 melanoma) of the same molecule?
Answer: > 100 µM

Question: What about the TGI (IGROV1 ovarian) of the same molecule?
Answer: 92.9 µM

Question: And the TGI (MDA-N)?
Answer: > 100 µM

Question: And the TGI (HOP-62 NSCLC)?
Answer: > 100 µM

Question: What about the TGI (SW-620 colon) of the same molecule?
Answer: > 100 µM

Question: What about the TGI (OVCAR-4 ovarian) of the same molecule?
Answer: > 100 µM

Question: And the TGI (U251 CNS)?
Answer: > 100 µM

Question: And the TGI (MALME-3M melanoma)?
Answer: 99.6 µM

Question: What about the TGI (NCI/ADR-RES ovarian) of the same molecule?
Answer: 78.6 µM

Question: And the TGI (UACC-257 melanoma)?
Answer: > 100 µM

Question: And the TGI (TK-10 renal)?
Answer: 84.9 µM

Question: What about the TGI (A498 renal) of the same molecule?
Answer: 76.5 µM

Question: What about the TGI (MDA-MB-435) of the same molecule?
Answer: > 100 µM

Question: And the TGI (SK-OV-3 ovarian)?
Answer: > 100 µM

Question: What about the TGI (CCRF-CEM leukemia) of the same molecule?
Answer: 83.7 µM

Question: And the TGI (SN12C renal)?
Answer: > 100 µM

Question: And the TGI (MCF7 breast)?
Answer: > 100 µM

Question: And the TGI (SNB-19 CNS)?
Answer: > 100 µM

Question: And the TGI (MOLT-4 leukemia)?
Answer: > 100 µM

Question: And the TGI (DU-145 prostate)?
Answer: > 100 µM

Question: And the TGI (HS 578T breast)?
Answer: 99.5 µM

Question: And the TGI (MDA-MB-231 breast)?
Answer: > 100 µM

Question: And the TGI (EKVX NSCLC)?
Answer: > 100 µM

Question: What about the TGI (OVCAR-5 ovarian) of the same molecule?
Answer: > 100 µM

Question: And the TGI (SK-MEL-28 melanoma)?
Answer: > 100 µM

Question: And the TGI (UACC-62 melanoma)?
Answer: > 100 µM

Question: And the TGI (NCI-H23 lung)?
Answer: > 100 µM

Question: What about the TGI (K-562 leukemia) of the same molecule?
Answer: > 100 µM

Question: And the TGI (786-0 renal)?
Answer: > 100 µM

Question: What about the TGI (HT29 colon) of the same molecule?
Answer: > 100 µM

Question: And the TGI (OVCAR-3 ovarian)?
Answer: > 100 µM

Question: And the TGI (SNB-75 CNS)?
Answer: > 100 µM

Question: What about the TGI (UO-31 renal) of the same molecule?
Answer: 76.9 µM

Question: What about the TGI (COLO 205 colon) of the same molecule?
Answer: > 100 µM

Question: What about the TGI (HCT-116 colon) of the same molecule?
Answer: > 100 µM

Question: What about the TGI (NCI-H226 lung) of the same molecule?
Answer: > 100 µM

Question: What about the TGI (RPMI-8226 leukemia) of the same molecule?
Answer: 89.9 µM

Question: What about the TGI (SF-539 CNS) of the same molecule?
Answer: > 100 µM

Question: What about the TGI (A549 NSCLC) of the same molecule?
Answer: > 100 µM

Question: What about the TGI (HCT-15 colon) of the same molecule?
Answer: 81.6 µM

Question: And the TGI (ACHN renal)?
Answer: > 100 µM
